Measurements published in patent publication US20090221594A1, “STABLE PHARMACEUTICAL COMPOSITIONS OF 5, 10 METHYLENETRAHYDROFOLATE” (priority 2005, published 2009).

What was measured:
Assay type in all cases: physicochemical
[1] = 5,10-MTHF stability following dissolution in water by HPLC; conditions: for % Normalized Purity of 5,10-MTHF: room temperature
Protocol: (§1) 10 ml sterile water was added to the reference formulation lyophile of 5,10-MTHF and to each of the test formulation lyophiles to give a final concentration of 10 mg/ml (this dissolution volume and concentration corresponds to the most current recommended clinical use guidelines for 5,10-MTHF for cancer therapy). The nonformulated 5,10-MTHF was dissolved in water to a concentration of 6 mg/ml. The lower concentration of nonformulated 5,10-MTHF was due to the fact that nonformulated 5,10-MTHF has a maximum solubility in water of approximately 6 mg/ml (when dissolved in a trisodium citrate, 5,10-MTHF has a much higher (>10 mg/ml) solubility). Samples were stored at room temperature under ambient air conditions to mimic as close as possible expected real-world use.
The stability of 5,10-MTHF dissolved in water was measured by HPLC. Data is reported as the normalized purity of 5,10-MTHF based on the starting purity according to the following formula: % Normalized Purity=(% 5,10-MTHF Time X)÷(% 5,10-MTHF Time 0)×(100)
5,10-MTHF stability kinetics were estimated by linear regression analysis (GraphPad Prism software).

[2] = pH time course following dissolution in water; conditions: for pH following dissolution in water: room temperature, ambient air
Protocol: as §1
The pH of 5,10-MTHF dissolved in water was measured at multiple time points using a digital pH meter.

[3] = Solubility of 5,10-MTHF in water
Protocol: as §1

Nc1nc2c(c(=O)[nH]1)N1CN(c3ccc(C(=O)N[C@@H](CCC(=O)O)C(=O)O)cc3)CC1CN2 (some centres unmarked) [Nonformulated, 5,10-methylenetetrahydrofolate]
% Normalized Purity of 5,10-MTHF ([1]; 0 hours after dissolution in water): 100.0% | % Normalized Purity of 5,10-MTHF ([1]; 0.5 hours after dissolution in water): 94.9% | % Normalized Purity of 5,10-MTHF ([1]; 1 hour after dissolution in water): 92.4% | % Normalized Purity of 5,10-MTHF ([1]; 2 hours after dissolution in water): 90.3% | % Normalized Purity of 5,10-MTHF ([1]; 4 hours after dissolution in water): 85.9% | % Normalized Purity of 5,10-MTHF ([1]; 8 hours after dissolution in water): 77.8% | % Normalized Purity of 5,10-MTHF ([1]; 12 hours after dissolution in water): 69.6% | % Normalized Purity of 5,10-MTHF ([1]; 18 hours after dissolution in water): 55.1% | % Normalized Purity of 5,10-MTHF ([1]; 24 hours after dissolution in water): 44.9% | Linear Regression Degradation Rate Following Dissolution in Water ([1]; slope of best-fit line, 0-24 hours): −2.2 % Purity/Hours | pH following dissolution in water ([2]; 0 hours): 6.88 | pH following dissolution in water ([2]; 0.25 hours): 6.89 | pH following dissolution in water ([2]; 0.5 hours): 6.87 | pH following dissolution in water ([2]; 0.75 hours): 6.85 | pH following dissolution in water ([2]; 1 hour): 6.83 | pH following dissolution in water ([2]; 2 hours): 6.77 | pH following dissolution in water ([2]; 4 hours): 6.80 | pH following dissolution in water ([2]; 6 hours): 6.83 | pH following dissolution in water ([2]; 8 hours): 6.81 | pH following dissolution in water ([2]; 24 hours): 6.79 | pH following dissolution in water (approximate, text summary) ([2]; starting and steady state pH over 24 hours): ~6.9 | solubility when dissolved in trisodium citrate ([3]; dissolved in a trisodium citrate): > 10 mg/mL | maximum solubility in water ([3]; nonformulated, water): approximately 6 mg/ml
